Data on 24 molecules can be found in US6689801B2, “Certain heteroaryl substituted thiol inhibitors of endothelin-converting enzyme” (Novartis AG, priority 1998, dated 2004).

In turn, `CCCC(S)C(=O)NC1(C(=O)NC(Cc2ccc(-c3cccs3)nc2)C(=O)O)CCCC1.Cl` (stereo not drawn) registered a melting point of 165 to 167 °C.
`Cc1nc(-c2ccccc2)oc1CC(NC(=O)C1(NC(=O)[C@@H](S)C(C)C)CCCC1)C(=O)O` (stereo in doubt) [Example 1(e), 2-{[1-(2-Mercapto-3-methyl-butanoylamino)-cyclopentanecarbonyl]-amino}-3-(4-methyl-2-phenyl-oxazol-5-yl)-propionic acid] registered a melting point of 227 to 229 °C.
For the molecule `Cc1noc(C)c1-c1nc(CC(NC(=O)C2(NC(=O)[C@@H](S)CC(C)C)CCCC2)C(=O)O)no1` (stereo in doubt) [Example 1(h), 3-[5-(3,5-Dimethyl-isoxazol-4-yl)-[1,2,4]oxadiazol-3-yl]-2-{[1-(2-mercapto-4-methyl-pentanoylamino)-cyclopentanecarbonyl]-amino}-propionic acid], the melting point fell in the range of 151 to 153 °C.
In the case of `CSCCC(S)C(=O)NC1(C(=O)NC(Cc2ccc(-c3ccoc3)nc2)C(=O)O)CCCC1.Cl` (stereo not drawn) it was 150 to 153 °C; in that of `CC(C)C[C@H](S)C(=O)NC1(C(=O)N[C@@H](Cc2cnc(-c3ccc(F)c(Cl)c3)s2)C(=O)O)CCCC1` (stereo in doubt) [Example 1(f), 3-[2-(3-Chloro-4-fluoro-phenyl)-thiazol-5-yl]-2-{[1-(2-mercapto-4-methyl-pentanoylamino)-cyclopentanecarbonyl]-amino}-propionic acid], 96 to 98 °C.
The molecule `CC[C@H](C)[C@H](S)C(=O)NC1(C(=O)NC(Cc2ccc(-c3ccccc3)s2)C(=O)O)CCCC1` (stereo in doubt) [Example 1(b), 2-{[1-(2-Mercapto-3-methyl-pentanoylamino)-cyclopentanecarbonyl]-amino}-3-(5-phenyl-thien-2-yl)-propionic acid] had a melting point of 131 to 133 °C.
On to `O=C(O)C(Cc1cc(-c2ccccc2)cs1)NC(=O)C1(NC(=O)[C@@H](S)Cc2ccccc2)CCCC1` (stereo in doubt) [Example 1(d), 2-{[1-(2-Mercapto-3-phenyl-propionylamino)-cyclopentanecarbonyl]-amino}-3-(4-phenyl-thien-2-yl)-propionic acid], for which the melting point was 133 to 136 °C.
In the case of `CSCC[C@H](S)C(=O)NC1(C(=O)NC(Cc2ccc(-c3cccs3)nc2)C(=O)O)CCCC1` (stereo in doubt) [Example 2(r), 2-{[1-(2-Mercapto-4-methylthio-butanoylamino)-cyclopentanecarbonyl]-amino}-3-[6-(thien-2-yl)-pyridin-3-yl]-propionic acid] it was 175 to 177 °C; in that of `CC(C)[C@H](S)C(=O)NC1(C(=O)NC(Cc2cc(-c3ccccc3)cs2)C(=O)O)CCCC1` (stereo partly drawn) [Example 1(c), 2-{[1-(2-Mercapto-3-methyl-butanoyllamino)-cyclopentanecarbonyl]-amino}-3-(4-phenyl-thien-2-yl)-propionic acid], 158 to 164 °C; in that of `CC(C)C[C@H](S)C(=O)NC1(C(=O)NC(Cc2ccc(-c3nccs3)nc2)C(=O)O)CCCC1` (stereo in doubt) [Example 2(uu), 2-{[1-(2-Mercapto-4-methyl-pentanoylamino)-cyclopentanecarbonyl]-amino}-3-[6-(thiazol-2-yl)-pyridin-3-yl]-propionic acid], 185 to 187 °C.
In the case of `CC(C)C[C@H](S)C(=O)NC(C)(C)C(=O)N[C@@H](Cc1ccc(-c2ccsc2)nc1)C(=O)O` (stereo in doubt) [Example 2(k), 2-[2-(2-Mercapto-4-methyl-pentanoylamino)-2-methyl-propionylamino]-3-[6-(thien-3-yl)-pyridin-3-yl]-propionic acid] it was 218 to 220 °C.
In the case of `CC(C)C[C@H](NC(=O)[C@@H](S)CC(C)C)C(=O)N[C@@H](Cc1ccc(-c2cccs2)nc1)C(=O)O` (stereo in doubt) [Example 2(aa), 2-[2-(2-Mercapto-4-methyl-pentanoylamino)-4-methyl-pentanoylamino]-3-[6-(thien-2-yl)-pyridin-3-yl]-propionic acid] it was 156 to 158 °C; in that of `CC(C)C[C@H](S)C(=O)NC1(C(=O)NC(Cc2ccc(-c3ccoc3)nc2)C(=O)O)CCCC1` (stereo in doubt) [Example 2(dd), 3-[6-(Furan-3-yl)-pyridin-3-yl]-2-{[1-(2-mercapto-4-methyl-pentanoylamino)-cyclopentanecarbonyl]-amino}-propanoic acid], 190 to 193 °C; in that of `CC(C)C[C@H](S)C(=O)N[C@@H](Cc1ccc(-c2cccs2)nc1)C(=O)N[C@@H](Cc1ccc(-c2cccs2)nc1)C(=O)O` (stereo in doubt) [Example 2(w), 2-{2-(2-Mercapto-4-methyl-pentanoylamino)-3-[6-(thiophen-2-yl)-pyridin-3-yl]-propanoylamino}-3-[6-(thien-2-yl)-pyridin-3-yl]-propionic acid], 210 to 212 °C.
In the case of `CC[C@H](C)C(S)C(=O)NC1(C(=O)NC(Cc2ccc(-c3ccsc3)nc2)C(=O)O)CCCC1` (stereo in doubt) [Example 2(b), 2-{[1-(2-Mercapto-3-methyl-pentanoylamino)-cyclopentanecarbonyl]-amino}-3-[6-(thien-3yl)-pyridin-3-yl]-propionic acid], the melting point fell in the range of 200 to 202 °C.
In the case of `O=C(O)[C@H](Cc1ccc(-c2ccsc2)nc1)NC(=O)C1(NC(=O)[C@@H](S)Cc2ccccc2)CCCC1` (stereo in doubt) [Example 2(l), 2-{[1-(2-Mercapto-3-phenyl-propionylamino)-cyclopentanecarbonyl]-amino}-3-[6-(thien-3-yl)-pyridin-3-yl]-propionic acid] it was 208 to 209 °C; in that of `O=C(NC1(C(=O)N[C@@H](Cc2ccc(-c3cccs3)nc2)C(=O)O)CCCC1)C(S)Cc1ccc(O)cc1` (stereo in doubt) [Example 2(v), 2-({1-[3-(4-Hydroxy-phenyl)-2-mercapto-propanoylamino]-cyclopentanecarbonyl}-amino)-3-[6-(thien-2-yl)-pyridin-3-yl]-propionic acid], 219 to 220 °C.
In the case of `CC(C)C[C@H](S)C(=O)N[C@@H](Cc1ccc(Br)nc1)C(=O)N[C@@H](Cc1ccc(-c2cccs2)nc1)C(=O)O` (stereo in doubt) [Example 2(bb), 2-[3-(6-Bromo-pyridin-3-yl)-2-(2-mercapto-4-methyl-pentanoylamino)-propionylamino]-3-[6-(thien-2-yl)-pyridin-3-yl]-propionic acid] it was 194 to 195 °C.
In the case of `CSCC[C@H](S)C(=O)NC1(C(=O)NC(Cc2ccc(-c3ccco3)nc2)C(=O)O)CCCC1` (stereo in doubt) [Example 2(tt), 3-[6-(Furan-2-yl)-pyridin-3-yl]-2-{[1-(2-mercapto-4-methylthiobutanoylamino)-cyclopentanecarbonyl]-amino}-propionic acid] it was 195 to 197 °C; in that of `CC(C)C[C@H](S)C(=O)N[C@@H](Cc1ccccc1)C(=O)N[C@@H](Cc1ccc(-c2cccs2)nc1)C(=O)O` [Example 2(u), 2-[1-(2-Mercapto-4-methyl-pentanoylamino)-3-phenyl-propionylamino]-3-[6-(thien-2-yl)-pyridin-3-yl]-propionic acid], 209 to 210 °C; in that of `CC(C)C[C@H](S)C(=O)NC1(C(=O)NC(Cc2ccc(-c3cccnc3)nc2)C(=O)O)CCCC1` (stereo in doubt) [Example 2(o), 2-{[1-(2-Mercapto-4-methyl-pentanoylamino)-cyclopentanecarbonyl]-amino}-3-[6-(pyridin-3-yl)-pyridin-3-yl]-propanoic acid], 165 to 168 °C.
`CC(C)C[C@H](S)C(=O)NC(C)(C)C(=O)N[C@@H](Cc1ccc(-c2cccs2)nc1)C(=O)O` (stereo in doubt) [Example 2(z), 2-[2-(2-Mercapto-4-methyl-pentanoylamino)-2-methyl-propionylamino]-3-[6-(thien-2-yl)-pyridin-3-yl]-propionic acid] showed a melting point of 194 to 196 °C.
In the case of `Cc1noc(C)c1-c1nc(CC(NC(=O)C2(NC(=O)[C@@H](S)C(C)C)CCCC2)C(=O)O)no1` (stereo in doubt) [Example 1(g), 3-[5-(3,5-Dimethyl-isoxazol-4-yl)-[1,2,4]oxadiazol-3-yl]-2-{[1-(2-mercapto-3-methyl-butanoylamino)-cyclopentanecarbonyl]-amino}-propionic acid] it was 170 to 172 °C.
In the case of `CC(C)C[C@H](S)C(=O)NC1(C(=O)NC(Cc2ccc(-c3ccco3)nc2)C(=O)O)CCCC1` (stereo in doubt) [Example 2(qq), 3-[6-(Furan-2-yl)-pyridin-3-yl]-2-{[1-(2-mercapto-4-methyl-pentanoylamino)-cyclopentanecarbonyl]-amino}-propionic acid] it was 200 to 202 °C.

Broadly, the melting point is the temperature of the solid-liquid transition.
